pIC50: −log10 of the molar value.
How the values were obtained:
[1] = biological target: T1, recombinant Aurora A (Homo sapiens, UniProt O14965); assay: Aurora A (Aurora 2) inhibition assay, Z'-Lyte kinase assay; assay type: biochemical; details: ATP 10 μM, 1 h
T1 construct: purchased Upstate, Lake Placid, N.Y
T1 sequence (O14965 1-403): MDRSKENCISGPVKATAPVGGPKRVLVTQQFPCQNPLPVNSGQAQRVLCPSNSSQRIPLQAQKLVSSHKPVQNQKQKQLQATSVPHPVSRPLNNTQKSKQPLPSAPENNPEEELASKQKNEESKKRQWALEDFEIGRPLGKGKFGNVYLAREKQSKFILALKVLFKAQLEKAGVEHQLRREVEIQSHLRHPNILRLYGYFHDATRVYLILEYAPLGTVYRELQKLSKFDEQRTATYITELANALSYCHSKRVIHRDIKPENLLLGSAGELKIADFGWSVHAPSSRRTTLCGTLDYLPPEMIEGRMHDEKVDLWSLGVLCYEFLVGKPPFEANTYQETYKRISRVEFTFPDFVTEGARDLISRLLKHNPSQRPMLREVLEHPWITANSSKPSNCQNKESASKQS
Method in brief: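 Z'-Lyte FRET assay: Aurora A (200-500 ng/mL final), Ser/Thr 1 peptide (2 μM) and ATP (10 μM) in 50 mM HEPES pH 7.5, 10 mM MgCl2, 5 mM EGTA, 0.05% Brij-35, 2 mM DTT, 1 h at room temperature. Coumarin/fluorescein emission ratio converted to percent phosphorylation; dose-response curves plotted.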

[2] = biological target: T2, N-terminal His-tagged human Src (Homo sapiens, UniProt P12931); assay: Src kinase inhibition assay (33P-ATP filter assay); assay type: biochemical
T2 construct: His (N); purchased Upstate USA Inc, 706 Forest Street, Charlottesville, Va

[3] = tested on: HCT116 cells; assay: Whole cell cytotoxicity assay, Sulforhodamine B; assay type: cell-based; details: Homo sapiens, HCT-116, HCT116, 96 hours incubation, SRB; for pIC50: read-out: IC50 values in this assay (HCT116 cell growth); for GI50: read-out: GI50 HCT116 cell growth
Method in brief: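 HCT116 cells (500/well) in DMEM/10% FBS/2 mM glutamine were preincubated 24 h, then exposed to compound for 96 h at 37 °C, 5% CO2, in duplicate. Cells were fixed with TCA and stained with sulforhodamine B (A570). GI50, TGI and LC50 were derived relative to a time-zero plate and an untreated control.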

[4] = group with IC50 greater than 100 nM

T2 sequence (P12931 whole entry): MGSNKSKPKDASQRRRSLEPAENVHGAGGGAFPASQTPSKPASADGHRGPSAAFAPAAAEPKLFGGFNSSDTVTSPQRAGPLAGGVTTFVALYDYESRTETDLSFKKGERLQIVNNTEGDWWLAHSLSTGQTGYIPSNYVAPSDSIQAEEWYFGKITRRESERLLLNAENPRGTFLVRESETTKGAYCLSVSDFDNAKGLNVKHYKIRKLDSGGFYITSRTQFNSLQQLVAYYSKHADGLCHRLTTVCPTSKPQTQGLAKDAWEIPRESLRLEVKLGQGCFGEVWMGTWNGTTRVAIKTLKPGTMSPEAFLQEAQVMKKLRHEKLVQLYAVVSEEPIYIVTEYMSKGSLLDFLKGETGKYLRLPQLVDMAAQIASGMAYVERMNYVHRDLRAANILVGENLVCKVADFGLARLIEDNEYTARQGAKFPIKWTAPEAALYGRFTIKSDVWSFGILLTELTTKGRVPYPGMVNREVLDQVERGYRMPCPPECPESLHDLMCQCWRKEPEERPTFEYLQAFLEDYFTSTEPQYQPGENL

Structure (SMILES)	pIC50 [1, 4]	pIC50 [2, 4]	pIC50 [3]	pIC50 [1]	pIC50 ([2]; 40 minutes at room temperature)	GI50 [3]
Cc1cc(Nc2cc(NC3CCOCC3)nc(-c3cc4ccccc4n3C)n2)n[nH]1 [Compound 7, N^4-(tetrahydro-2H-pyran-4-yl)-2-(1-methyl-1H-indol-2-yl)-N^6-(5-methyl-1H-pyrazol-3-yl)pyrimidine-4,6-diamine]	≥ 6.00	≥ 6.00	5.00 to 6.00	–	–	–
Cc1cc(Nc2cc(N3CCN(C)CC3)nc(-c3cccc4ccccc34)n2)n[nH]1 [Example 134, N-(5-methyl-1H-pyrazol-3-yl)-6-(4-methylpiperazin-1-yl)-2-(naphthalen-1-yl)pyrimidin-4-amine]	–	–	5.00 to 6.00	≥ 7.00	≥ 7.00	–
COCCN(C)c1cc(Nc2cc(C)[nH]n2)nc(-c2cccc(N(C)C)c2)n1 [Compound 119, 2-(3-(dimethylamino)phenyl)-N^4-(2-methoxyethyl)-N^4-methyl-N^6-(5-methyl-1H-pyrazol-3-yl)pyrimidine-4,6-diamine]	–	–	5.00 to 6.00	≥ 7.00	≥ 7.00	–
Cc1cc(C)cc(-c2nc(Nc3cc(C)[nH]n3)cc(N3CCN(C)CC3)n2)c1 [Example 169, 2-(3,5-dimethylphenyl)-N-(5-methyl-1H-pyrazol-3-yl)-6-(4-methylpiperazin-1-yl)pyrimidin-4-amine]	–	≥ 6.00	–	≥ 7.00	–	≤ 1 µM
Cc1cc(Nc2cc(N3CCN(C)CC3)nc(-c3ccc4c(c3)OCCO4)n2)n[nH]1 [Example 137, 2-(2,3-dihydrobenzo[b][1,4]dioxin-6-yl)-N-(5-methyl-1H-pyrazol-3-yl)-6-(4-methylpiperazin-1-yl)pyrimidin-4-amine]	–	–	–	≥ 7.00	≥ 7.00	≤ 1 µM
Cc1ccc(F)c(-c2nc(Nc3cc(C)[nH]n3)cc(N3CCN(C)CC3)n2)c1 [Example 193, 2-(2-fluoro-5-methylphenyl)-N-(5-methyl-1H-pyrazol-3-yl)-6-(4-methylpiperazin-1-yl)pyrimidin-4-amine]	–	–	5.00 to 6.00	≥ 7.00	≥ 7.00	–
Cc1cc(Nc2cc(NC3CCOCC3)nc(-c3cccc(-c4ccccc4)c3)n2)n[nH]1 [Example 159, 2-(biphenyl-3-yl)-N^4-(5-methyl-1H-pyrazol-3-yl)-N^6-(tetrahydro-2H-pyran-4-yl)pyrimidine-4,6-diamine]	–	≥ 6.00	5.00 to 6.00	≥ 7.00	–	–
Cc1cccc(-c2nc(Nc3cc(C)[nH]n3)cc(N(C)CCN(C)C)n2)c1 [Compound 52, N^4-(2-(dimethylamino)ethyl)-N^4-methyl-N^6-(5-methyl-1H-pyrazol-3-yl)-2-m-tolylpyrimidine-4,6-diamine]	≥ 6.00	≥ 6.00	–	–	–	≤ 1 µM
Cc1cc(Nc2cc(N3CCN(C)CC3)nc(-c3ccc(F)cc3)n2)n[nH]1 [Compound 32, 2-(4-fluorophenyl)-N-(5-methyl-1H-pyrazol-3-yl)-6-(4-methylpiperazin-1-yl)pyrimidin-4-amine]	–	–	–	≥ 7.00	≥ 7.00	≤ 1 µM
Cc1cc(Nc2cc(N3CCN(C)CC3)nc(-c3cccc(OC(F)(F)F)c3)n2)n[nH]1 [Example 192, N-(5-methyl-1H-pyrazol-3-yl)-6-(4-methylpiperazin-1-yl)-2-(3-(trifluoromethoxy)phenyl)pyrimidin-4-amine]	–	–	5.00 to 6.00	≥ 7.00	≥ 7.00	–
Cc1cc(Nc2cc(N3CCN(C)CC3)nc(-c3cc(F)cc(F)c3)n2)n[nH]1 [Example 170, 2-(3,5-difluorophenyl)-N-(5-methyl-1H-pyrazol-3-yl)-6-(4-methylpiperazin-1-yl)pyrimidin-4-amine]	–	–	–	≥ 7.00	≥ 7.00	≤ 1 µM
Cc1cc(Nc2cc(NC3CCOCC3)nc(-c3ccc4c(c3)OCO4)n2)n[nH]1 [Example 132, 2-(benzo[d][1,3]dioxol-5-yl)-N^4-(5-methyl-1H-pyrazol-3-yl)-N^6-(tetrahydro-2H-pyran-4-yl)pyrimidine-4,6-diamine]	–	–	5.00 to 6.00	≥ 7.00	≥ 7.00	–
Cc1ccc(-c2nc(Nc3cc(C)[nH]n3)cc(N3CCN(C)CC3)n2)cc1 [Compound 38, N-(5-methyl-1H-pyrazol-3-yl)-6-(4-methylpiperazin-1-yl)-2-p-tolylpyrimidin-4-amine]	–	–	–	≥ 7.00	≥ 7.00	≤ 1 µM
